Results as given in patent US20180002319A1, “MACROCYCLIC PICOLINAMIDE COMPOUNDS WITH FUNGICIDAL ACTIVITY” (DOW AGROSCIENCES LLC, priority 2014, published 2018).
Where two headings read alike, the source gives them in different places.

Tests used:
Zymoseptoria tritici = experiment: Leaf Blotch of Wheat (SEPTTR) fungicidal activity; assay type: in vivo; details: wheat leaf blotch; for pest or weed control at 100 ppm: High Volume application; for pest or weed control at 121.5 g/ha: Low Volume application, 121.5 g/H
Summary of the method: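 Wheat seedlings (Yuma, first leaf emerged) were sprayed to run-off with compound in acetone/water containing Triton X-100 and inoculated with Z. tritici spores before or after treatment. Percent disease control comes from 0–100% severity on treated versus untreated plants.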

Puccinia triticina = experiment: Wheat Brown Rust (PUCCRT) fungicidal activity; assay type: in vivo; details: for pest or weed control at 100 ppm: High Volume application; for pest or weed control at 121.5 g/ha: Low Volume application, 121.5 g/H
Summary of the method: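 Yuma wheat seedlings at first-leaf stage sprayed to run-off with acetone/water (Triton X-100) solutions, inoculated with P. triticina spores before or after treatment. Overnight dark dew at 22° C, then greenhouse at 24° C; percent disease control from severity versus untreated plants.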

[1] = 24 h, 1 day protectant, read-out: SEPTTR disease control, 1DP (1 Day Protectant)
[2] = 72 h, 3 day curative, read-out: SEPTTR disease control, 3DC (3 Day Curative)
[3] = 24 h, 1 day protectant, read-out: PUCCRT disease control, 1DP (1 Day Protectant)
[4] = 72 h, 3 day curative, read-out: PUCCRT disease control, 3DC (3 Day Curative)

Structure (SMILES)	pest or weed control at 100 ppm (Zymoseptoria tritici; [1])	pest or weed control at 100 ppm (Zymoseptoria tritici; [2])	pest or weed control at 100 ppm (Puccinia triticina; [3])	pest or weed control at 100 ppm (Puccinia triticina; [4])	pest or weed control at 121.5 g/ha (Zymoseptoria tritici; [1])	pest or weed control at 121.5 g/ha (Zymoseptoria tritici; [2])	pest or weed control at 121.5 g/ha (Puccinia triticina; [3])	pest or weed control at 121.5 g/ha (Puccinia triticina; [4])
COc1ccnc(C(=O)N[C@H]2COCC[C@H](Cc3ccccc3)[C@@H](OCC(C)C)[C@H](C)OC2=O)c1O [Compound 101]	< 80%	< 80%	< 80%	< 80%				
COc1ccnc(C(=O)N[C@H]2CCCC[C@H](Cc3ccccc3)[C@@H](OCC(C)C)[C@H](C)OC2=O)c1O [Compound 102]	> 80%		> 80%	< 80%				
CCC[C@H]1CCCC[C@H](NC(=O)c2nccc(OC)c2O)C(=O)O[C@@H](C)[C@@H]1OC(=O)C(C)C [Compound 103]	< 80%		> 80%	< 80%				
COc1ccnc(C(=O)N[C@H]2CCCC[C@@H]3OC(C)(C)O[C@H]3[C@H](C)OC2=O)c1O [Compound 104]	< 80%	< 80%	> 80%	> 80%				
COc1ccc(CO[C@H]2[C@H](C)OC(=O)[C@@H](NC(=O)c3nccc(OC)c3O)CCOC[C@@H]2OCc2ccc(OC)cc2)cc1 [Compound 106]	> 80%	< 80%	> 80%					
COc1ccnc(C(=O)N[C@H]2CCCC[C@H](OC)[C@@H](OC3CCCC3)[C@H](C)OC2=O)c1O [Compound 107]	> 80%	< 80%	> 80%	> 80%				
COc1ccnc(C(=O)N[C@H]2CCCC[C@H](OC3CCCC3)[C@@H](OC)[C@H](C)OC2=O)c1O [Compound 108]	< 80%	< 80%	< 80%	> 80%				
COc1ccnc(C(=O)N[C@H]2CCCC[C@H](Oc3ccccc3)[C@@H](OC3CCCC3)[C@H](C)OC2=O)c1O [Compound 109]	> 80%	< 80%	> 80%	< 80%				
COc1ccnc(C(=O)N[C@H]2CCOC[C@H](Oc3ccccc3)[C@@H](Oc3ccccc3)[C@H](C)OC2=O)c1O [Compound 110]	> 80%		> 80%	> 80%				
CCCOC(=O)O[C@H]1CCCC[C@H](NC(=O)c2nccc(OC)c2O)C(=O)O[C@@H](C)[C@@H]1OCC(C)C [Compound 111]	< 80%	> 80%	< 80%	< 80%				
COc1ccnc(C(=O)N[C@H]2COCCC[C@@H](OCC(C)C)[C@H](C)OC2=O)c1O [Compound 112]	< 80%	< 80%	< 80%	< 80%				
COc1ccnc(C(=O)N[C@H]2CCOC[C@H](OC)[C@@H](Oc3ccccc3)[C@H](C)OC2=O)c1O [Compound 113]	> 80%	> 80%	> 80%	> 80%				
CCCO[C@H]1COCC[C@H](NC(=O)c2nccc(OC)c2O)C(=O)O[C@@H](C)[C@@H]1Oc1ccccc1 [Compound 114]	> 80%	> 80%	> 80%	> 80%				
COc1ccnc(C(=O)N[C@H]2CCOC[C@H](OCC(C)C)[C@@H](OCC(C)C)[C@H](C)OC2=O)c1O [Compound 116]		< 80%	< 80%	< 80%				
COc1ccnc(C(=O)N[C@H]2CCOC[C@H](OC(=O)C(C)C)[C@@H](Oc3ccccc3)[C@H](C)OC2=O)c1O [Compound 117]	> 80%	< 80%	< 80%					
COc1ccnc(C(=O)N[C@H]2CCOC[C@H](OCC(C)C)[C@@H](Oc3ccccc3)[C@H](C)OC2=O)c1O [Compound 118]	> 80%		> 80%	< 80%				
C[C@@H]1OC(=O)[C@@H](NC(=O)c2ncccc2O)CCCC[C@H](CC2CCCC2)[C@H]1Oc1ccccc1 [Compound 120]	< 80%	> 80%	> 80%					

Structure (SMILES)	pest or weed control at 100 ppm (Zymoseptoria tritici; [1])	pest or weed control at 100 ppm (Zymoseptoria tritici; [2])	pest or weed control at 100 ppm (Puccinia triticina; [3])	pest or weed control at 100 ppm (Puccinia triticina; [4])	pest or weed control at 121.5 g/ha (Zymoseptoria tritici; [1])	pest or weed control at 121.5 g/ha (Zymoseptoria tritici; [2])	pest or weed control at 121.5 g/ha (Puccinia triticina; [3])	pest or weed control at 121.5 g/ha (Puccinia triticina; [4])
COc1ccnc(C(=O)N[C@H]2CCCC[C@H](CC3CCCC3)[C@@H](Oc3ccccc3)[C@H](C)OC2=O)c1O [Compound 121]	< 80%	> 80%	< 80%					
C=CCO[C@@H]1[C@@H](CC2CCCC2)CCCC[C@H](NC(=O)c2nccc(OC)c2O)C(=O)O[C@H]1C [Compound 122]	< 80%	< 80%	< 80%					
COc1ccnc(C(=O)N[C@H]2CCCC[C@H](CC3CCCC3)[C@@H](OC(=O)C(C)C)[C@H](C)OC2=O)c1O [Compound 123]		< 80%	< 80%					
CCCO[C@@H]1[C@@H](CC2CCCC2)CCCC[C@H](NC(=O)c2nccc(OC)c2O)C(=O)O[C@H]1C [Compound 124]	< 80%	< 80%	< 80%	< 80%				
COc1ccnc(C(=O)N[C@H]2CCCC[C@H](CC3CCCC3)[C@@H](OC)[C@H](C)OC2=O)c1O [Compound 125]	< 80%	< 80%	> 80%	< 80%				
COc1ccnc(C(=O)N[C@H]2COCC[C@H](Cc3ccccc3)[C@@H](Oc3ccccc3)[C@H](C)OC2=O)c1O [Compound 126]	> 80%	< 80%	> 80%	> 80%				
COc1ccnc(C(=O)N[C@H]2CCCC[C@H](Cc3ccccc3)[C@@H](OC(=O)C(C)C)[C@H](C)OC2=O)c1O [Compound 127]	> 80%	< 80%	> 80%	> 80%				
COc1ccnc(C(=O)N[C@H]2CCCC[C@H](Cc3ccccc3)[C@@H](Oc3ccccc3)[C@H](C)OC2=O)c1O [Compound 128]	> 80%	< 80%	> 80%	> 80%				
COc1ccc(C[C@H]2CCOC[C@H](NC(=O)c3nccc(OC)c3O)C(=O)O[C@@H](C)[C@@H]2Oc2ccccc2)cc1 [Compound 129]	> 80%		> 80%	> 80%				
CC[C@H]1CCOC[C@H](NC(=O)c2nccc(OC)c2O)C(=O)O[C@@H](C)[C@@H]1Oc1ccccc1 [Compound 130]	< 80%	> 80%	> 80%	> 80%				
CC[C@H]1CCOC[C@H](NC(=O)c2nccc(OC)c2O)C(=O)O[C@@H](C)[C@@H]1OCC(C)C [Compound 131]		< 80%	> 80%	> 80%				
COc1ccnc(C(=O)N[C@H]2COCC[C@H](Cc3ccc(F)cc3)[C@@H](Oc3ccccc3)[C@H](C)OC2=O)c1O [Compound 132]	> 80%		> 80%	> 80%				
COc1ccnc(C(=O)N[C@H]2COCC[C@H](Cc3ccc(F)cc3)[C@@H](OCC3CC3)[C@H](C)OC2=O)c1O [Compound 133]	< 80%	< 80%	> 80%	> 80%				
COc1ccnc(C(=O)N[C@H]2COCC[C@H](Cc3ccc(F)cc3)[C@@H](OC(=O)C(C)C)[C@H](C)OC2=O)c1O [Compound 134]	> 80%	> 80%	> 80%	< 80%				
CC[C@H]1CCOC[C@H](NC(=O)c2nccc(OC)c2O)C(=O)O[C@@H](C)[C@@H]1OC(=O)c1ccccc1 [Compound 135]	> 80%	> 80%	> 80%	> 80%				
CC[C@H]1CCOC[C@H](NC(=O)c2nccc(OC)c2O)C(=O)O[C@@H](C)[C@@H]1OC(=O)C1CC1 [Compound 136]		< 80%	> 80%	> 80%				
CCC[C@H]1CCCC[C@H](NC(=O)c2nccc(OC)c2OCOC(C)=O)C(=O)O[C@@H](C)[C@@H]1OCC(C)C [compound 30, ((2-(((3S,8S,9R,10S)-9-isobutoxy-10-methyl-2-oxo-8-propyloxecan-3-yl)carbamoyl)-4-methoxypyridin-3-yl)oxy)methyl acetate]					< 80%	< 80%	> 80%	< 80%
